Assay results taken from patent US6075060A, “Trans olefinic diols with surfactant properties” (Air Products and Chemicals, Inc., priority 1998, dated 2000).
In brackets after ≈: the same amount, converted by molar mass.

Legend:
[1] = Equilibrium surface tension by maximum-bubble-pressure method; format: physicochemical; settings: for EST, trans olefin: 0.05 wt. %, Table 4; for EST of 0.1 wt % solution: cis and trans isomers, Table 7; for EST at Solubility Limit: trans isomers, Table 8; for Equilibrium Surface Tension: 0.1 wt %, 23° C., 1 bubble/second, Table 2
Procedure: The equilibrium surface tension is measured using the maximum-bubble-pressure method at 23° C. and 1 bubble/second. This method is described in Langmuir, Vol. 2 (1986), pp. 428-432. When measured at the solubility limit of the surfactant, an equilibrium surface tension of 40 dynes/cm or less is desired; preferably 35 dynes/cm or less.
The equilibrium surface tension was measured using the maximum-bubble-pressure method at 23° C. and 1 bubble/second at 0.1 wt %. The results, presented in Table 2, indicate that olefinic diols with 10 or less carbons are poor surfactants and the cis isomer has slightly better equilibrium surface tension than the trans isomer.
The equilibrium surface tension of the compounds of Examples 3, 4 and 5 was measured 0.05 wt. %.

[2] = Water solubility (solubility limit); format: physicochemical; settings: for solubility: water

| SMILES | EST of 0.1 wt % solution [1] | solubility ([2]; cis and trans isomers, Table 7) | also measured |
| --- | --- | --- | --- |
| CC(O)(/C=C/C(C)(O)c1ccccc1)c1ccccc1 (centres unmarked) [Example 4] |  |  | EST, trans olefin [1]: 67 DYNES/CM |
| CC(C)CC(C)(O)/C=C/C(C)(O)CC(C)C (stereo not drawn) [Example 7 trans, 2,4,7,9-tetramethyl-5-decene-4,7-diol] | 34 dynes/cm | 2000 µg/mL (≈ 8760 µM) | EST at Solubility Limit [1]: 29 dynes/cm; Solubility Limit ([2]; trans isomers, Table 8): 0.2 wt % in water |
| CCC(O)(/C=C\C(O)(CC)CC)CC [Example 6 cis, 3,6-diethyl-4-octene-3,6-diol] | 54 dynes/cm | 100 µg/mL (≈ 499 µM) |  |
| CCCCCCC(C)(O)/C=C/C(C)(O)CCCCCC (centres unmarked) [Example 3] |  |  | EST, trans olefin [1]: 67 DYNES/CM |
| CC(C)CCC(C)(O)/C=C\C(C)(O)CCC(C)C (stereo not drawn) [Example 8 cis, 2,5,8,11-tetramethyl-6-dodecene-5,8-diol] | 68 dynes/cm | < 100 µg/mL |  |
| CCCCC(O)(/C=C/C(O)(CCCC)CCCC)CCCC [Example 5] |  |  | EST, trans olefin [1]: 69 DYNES/CM |
| CCC(C)(O)/C=C/C(C)(O)CC (stereo not drawn) [Example 2 trans] |  |  | Equilibrium Surface Tension [1]: 59 dynes/cm |
| CCC(C)(O)/C=C\C(C)(O)CC (stereo not drawn) [Example 2 cis] |  |  | Equilibrium Surface Tension [1]: 51 dynes/cm |
| CC(C)CCC(C)(O)/C=C/C(C)(O)CCC(C)C (stereo not drawn) [Example 8 trans, 2,5,8,11-tetramethyl-6-dodecene-5,8-diol] | 33 dynes/cm | 300 µg/mL (≈ 1170 µM) | EST at Solubility Limit [1]: 33 dynes/cm; Solubility Limit ([2]; trans isomers, Table 8): 0.03 wt % in water |
| CCC(O)(/C=C/C(O)(CC)CC)CC [Example 6 trans, 3,6-diethyl-4-octene-3,6-diol] | 50 dynes/cm | 5000 µg/mL (≈ 25000 µM) |  |
| CC(C)CC(C)(O)/C=C\C(C)(O)CC(C)C (stereo not drawn) [Example 7 cis, 2,4,7,9-tetramethyl-5-decene-4,7-diol] | 58 dynes/cm | < 100 µg/mL |  |
| CCCCC(C)(O)/C=C/C(C)(O)CCCC (centres unmarked) [Example 9, 5,8-dimethyl-6-dodecene-5,8-diol] |  |  | EST at Solubility Limit [1]: 33 dynes/cm; solubility ([2]; trans isomers, Table 8): 1000 µg/mL (≈ 4380 µM) |
